Source: patent US7763630B2 (priority 2007, dated 2010)

Legend:
[1] = system: recombinant NL-Rluc virus; experiment: Inhibition of HIV replication (NL-Rluc virus); format: cell-based; settings: Human immunodeficiency virus 1, read-out: Antiviral Activity
HIV-integrase = HIV-integrase (Human immunodeficiency virus type 1 group M subtype B, UniProt P12497); experiment: HIV-Integrase Inhibition Activity (SPA strand transfer assay)
Protocol: HIV-Integrase Inhibition Activity. To evaluate in-vitro activity against HIV-integrase, 5 pmole of biotin labeled substrate DNA was bound to 100 μg of Streptavidin coated PVT SPA beads (Amersham Pharmacia Biotech). Recombinant integrase (0.26 ng) was incubated with the beads for 90 min at 37° C. Unbound enzyme was removed by washing the complex followed by addition of inhibitors and 0.1 fmol of P33 labeled target DNA. The reaction was stopped by adding EDTA to a final concentration of 10 mM. Samples were counted in TopCountNXT (Packard) and the CPM was used as a measure of integration. […] Activity equal to A refers to a compound having IC50=0.002 to 0.10 μM while B and C denote compounds having IC50=0.1 to 1.0 μM and IC50≧1.0 μM respectively.

purified integrase = purified integrase (Human immunodeficiency virus type 1 group M subtype B, UniProt P12497); experiment: HIV-Integrase binding assay (competition with radiolabeled compound A)
Protocol: HIV-Integrase binding assay. In this assay competitive binding experiments with test compounds and a radiolabeled integrase inhibitor (compound A) are performed against purified integrase. SPA bead/DNA/enzyme complexes were prepared as for the integrase inhibition assay except, to each well, 0.69 μl of integrase enzyme (0.42 mg/μl) was used per 2 μl of LTR DNA-attached scintillation proximity beads (stock 50 mg/ml). Binding reactions were carried out in 96-well white polystyrene assay plates (Corning, #3600). The following was added sequentially to each well: 20 μl of water or 20 μl of human serum (Cellgro Cat #35-060-CL), 5 μl of serially diluted compound (in 50% DMSO/50% integrase SPA buffer), 5 μl of [^3H]-compound I (6,000 cpm/μl in SPA buffer) and 20 μl of bead/DNA/enzyme complex. The plates were shaken for 2 hours and then allowed to sit at room temperature without shaking overnight. The [^3H]-compound I binding was measured using a Topcount scintillation counter. Cheng and Prusoff equations were used to convert the inhibition of compound 1 binding into the corresponding Ki value.

Compound	EC50 [1] [nM]	IC50 (HIV-integrase) [nM]	Ki (purified integrase) [nM]
Cn1c(C2CCOC2)nc(C(=O)NCc2ccc(F)cc2)c(O)c1=O (stereo not drawn) [Example 1, N-(4-Fluorobenzyl)-5-hydroxy-1-methyl-6-oxo-2-(tetrahydrofuran-3-yl)-1,6-dihydropyrimidine-4-carboxamide]	3 to 100	2 to 100	–
Cc1cc(CNC(=O)c2nc(C3CCOC3)n(C)c(=O)c2O)ccc1F (stereo not drawn) [Example 2, N-(4-Fluoro-3-methylbenzyl)-5-hydroxy-1-methyl-6-oxo-2-(tetrahydrofuran-3-yl)-1,6-dihydropyrimidine-4-carboxamide]	3 to 100	2 to 100	–
Cn1c(C2CCOC2)nc(C(=O)NCc2ccc(F)cc2-n2cncn2)c(O)c1=O (stereo not drawn) [Example 3, N-(4-fluoro-2-(1H-1,2,4-triazol-1-yl)benzyl)-5-hydroxy-1-methyl-6-oxo-2-(tetrahydrofuran-3-yl)-1,6-dihydropyrimidine-4-carboxamide]	3 to 100	–	1 to 3
Cc1ncnn1-c1cc(F)ccc1CNC(=O)c1nc(C2CCOC2)n(C)c(=O)c1O (stereo not drawn) [Example 4, N-(4-fluoro-2-(5-methyl-1H-1,2,4-triazol-1-yl)benzyl)-5-hydroxy-1-methyl-6-oxo-2-(tetrahydrofuran-3-yl)-1,6-dihydropyrimidine-4-carboxamide]	3 to 100	–	3 to 50
Cc1cnnn1-c1cc(F)ccc1CNC(=O)c1nc(C2CCOC2)n(C)c(=O)c1O (stereo not drawn) [Example 5, N-(4-fluoro-2-(5-methyl-1H-1,2,3-triazol-1-yl)benzyl)-5-hydroxy-1-methyl-6-oxo-2-(tetrahydrofuran-3-yl)-1,6-dihydropyrimidine-4-carboxamide]	3 to 100	–	3 to 50
Cn1ncnc1-c1cc(F)ccc1CNC(=O)c1nc(C2CCOC2)n(C)c(=O)c1O (stereo not drawn) [Example 6, N-(4-fluoro-2-(1-methyl-1H-1,2,4-triazol-5-yl)benzyl)-5-hydroxy-1-methyl-6-oxo-2-(tetrahydrofuran-3-yl)-1,6-dihydropyrimidine-4-carboxamide]	3 to 100	–	3 to 50
Cn1c(C2CCOC2)nc(C(=O)NCc2ccc(F)cc2S(C)(=O)=O)c(O)c1=O (stereo not drawn) [Example 7, N-(4-fluoro-2-(methylsulfonyl)benzyl)-5-hydroxy-1-methyl-6-oxo-2-(tetrahydrofuran-3-yl)-1,6-dihydropyrimidine-4-carboxamide]	3 to 100	–	3 to 50
Cn1c(C2CCOC2)nc(C(=O)NCc2ccccc2N2CCCCS2(=O)=O)c(O)c1=O (stereo not drawn) [Example 8]	3 to 100	–	3 to 50
CN(C)S(=O)(=O)c1cc(F)ccc1CNC(=O)c1nc(C2CCOC2)n(C)c(=O)c1O (stereo not drawn) [Example 10, N-(2-(N,N-dimethylsulfamoyl)-4-fluorobenzyl)-5-hydroxy-1-methyl-6-oxo-2-(tetrahydrofuran-3-yl)-1,6-dihydropyrimidine-4-carboxamide]	3 to 100	–	3 to 50
Cn1cnnc1-c1cc(F)ccc1CNC(=O)c1nc(C2CCOC2)n(C)c(=O)c1O (stereo not drawn) [Example 11, N-(4-fluoro-2-(4-methyl-4H-1,2,4-triazol-3-yl)benzyl)-5-hydroxy-1-methyl-6-oxo-2-(tetrahydrofuran-3-yl)-1,6-dihydropyrimidine-4-carboxamide]	3 to 100	–	1 to 3
CN1CCN(c2cc(F)ccc2CNC(=O)c2nc(C3CCOC3)n(C)c(=O)c2O)C1=O (stereo not drawn) [Example 12, N-(4-fluoro-2-(3-methyl-2-oxoimidazolidin-1-yl)benzyl)-5-hydroxy-1-methyl-6-oxo-2-(tetrahydrofuran-3-yl)-1,6-dihydropyrimidine-4-carboxamide]	3 to 100	–	1 to 3
COCCN1CCN(c2cc(F)ccc2CNC(=O)c2nc(C3CCOC3)n(C)c(=O)c2O)C1=O (stereo not drawn) [Example 13, N-(4-fluoro-2-(3-(2-methoxyethyl)-2-oxoimidazolidin-1-yl)benzyl)-5-hydroxy-1-methyl-6-oxo-2-(tetrahydrofuran-3-yl)-1,6-dihydropyrimidine-4-carboxamide]	3 to 100	–	1 to 3
Cn1c(C2CCOC2)nc(C(=O)NCc2ccc(F)cc2N2CCN(CCO)C2=O)c(O)c1=O (stereo not drawn) [Example 14, N-(4-fluoro-2-(3-(2-hydroxyethyl)-2-oxoimidazolidin-1-yl)benzyl)-5-hydroxy-1-methyl-6-oxo-2-(tetrahydrofuran-3-yl)-1,6-dihydropyrimidine-4-carboxamide]	3 to 100	–	1 to 3
Cn1c(C2COCC2O)nc(C(=O)NCc2ccc(F)cc2)c(O)c1=O (stereo not drawn) [Example 15, N-(4-Fluorobenzyl)-5-hydroxy-2-(4-hydroxytetrahydrofuran-3-yl)-1-methyl-6-oxo-1,6-dihydropyrimidine-4-carboxamide]	3 to 100	2 to 100	–
CSC1COCC1c1nc(C(=O)NCc2ccc(F)cc2)c(O)c(=O)n1C (stereo not drawn) [Example 16, N-(4-Fluorobenzyl)-5-hydroxy-1-methyl-2-(4-(methylthio)tetrahydrofuran-3-yl)-6-oxo-1,6-dihydropyrimidine-4-carboxamide]	3 to 100	2 to 100	–
Cn1c(C2CCOCC2)nc(C(=O)NCc2ccc(F)cc2)c(O)c1=O [Example 17, N-(4-Fluorobenzyl)-5-hydroxy-1-methyl-6-oxo-2-(tetrahydro-2H-pyran-4-yl)-1,6-dihydropyrimidine-4-carboxamide]	3 to 100	2 to 100	–
Cn1c(C2CCOCC2)nc(C(=O)NCc2ccc(F)cc2-n2cncn2)c(O)c1=O [Example 18, N-(4-fluoro-2-(1H-1,2,4-triazol-1-yl)benzyl)-5-hydroxy-1-methyl-6-oxo-2-(tetrahydro-2H-pyran-4-yl)-1,6-dihydropyrimidine-4-carboxamide]	3 to 100	–	3 to 50
Cc1ncnn1-c1cc(F)ccc1CNC(=O)c1nc(C2CCOCC2)n(C)c(=O)c1O [Example 19, N-(4-fluoro-2-(5-methyl-1H-1,2,4-triazol-1-yl)benzyl)-5-hydroxy-1-methyl-6-oxo-2-(tetrahydro-2H-pyran-4-yl)-1,6-dihydropyrimidine-4-carboxamide]	3 to 100	–	3 to 50
Cc1cnnn1-c1cc(F)ccc1CNC(=O)c1nc(C2CCOCC2)n(C)c(=O)c1O [Example 20, N-(4-fluoro-2-(5-methyl-1H-1,2,3-triazol-1-yl)benzyl)-5-hydroxy-1-methyl-6-oxo-2-(tetrahydro-2H-pyran-4-yl)-1,6-dihydropyrimidine-4-carboxamide]	3 to 100	–	3 to 50
Cn1ncnc1-c1cc(F)ccc1CNC(=O)c1nc(C2CCOCC2)n(C)c(=O)c1O [Example 21, N-(4-fluoro-2-(1-methyl-1H-1,2,4-triazol-5-yl)benzyl)-5-hydroxy-1-methyl-6-oxo-2-(tetrahydro-2H-pyran-4-yl)-1,6-dihydropyrimidine-4-carboxamide]	3 to 100	–	1 to 3
Cn1c(C2CCOCC2)nc(C(=O)NCc2ccc(F)cc2S(C)(=O)=O)c(O)c1=O [Example 22, N-(4-fluoro-2-(methylsulfonyl)benzyl)-5-hydroxy-1-methyl-6-oxo-2-(tetrahydro-2H-pyran-4-yl)-1,6-dihydropyrimidine-4-carboxamide]	3 to 100	–	3 to 50
CN(C)S(=O)(=O)c1cc(F)ccc1CNC(=O)c1nc(C2CCOCC2)n(C)c(=O)c1O [Example 23, N-(2-(N,N-dimethylsulfamoyl)-4-fluorobenzyl)-5-hydroxy-1-methyl-6-oxo-2-(tetrahydro-2H-pyran-4-yl)-1,6-dihydropyrimidine-4-carboxamide]	3 to 100	–	3 to 50
Cn1c(C2CCOCC2)nc(C(=O)NCc2ccccc2N2CCCCS2(=O)=O)c(O)c1=O [Example 25]	3 to 100	–	3 to 50
Cn1cnnc1-c1cc(F)ccc1CNC(=O)c1nc(C2CCOCC2)n(C)c(=O)c1O [Example 26, N-(4-fluoro-2-(4-methyl-4H-1,2,4-triazol-3-yl)benzyl)-5-hydroxy-1-methyl-6-oxo-2-(tetrahydro-2H-pyran-4-yl)-1,6-dihydropyrimidine-4-carboxamide]	3 to 100	–	1 to 3
